Test results reported in patent US8853129B2 (Dow AgroSciences, LLC., priority 2010, dated 2014).

Experiments:
Assay in all cases: Herbicidal activity of mixtures under field conditions, residual weed control in grape crop
Type in all cases: in vivo
[1] = tested on: common groundsel (Senecio vulgaris; SENVU); conditions: penoxsulam 7 g ai/ha; 103 days after application, Fronton, France; glyphosate tank mixed
Procedure: (§1) Trials were conducted under field conditions in France. Trial sites were located in commercially grown European grape crop (Vitis vinifera). The grapes were grown using normal cultural practices for fertilization, seeding, and maintenance to ensure good growth of the crop and the weeds. The trials were conducted using normal research methodology. Trial plots were between 2 to 4.5 meters (m) wide by 5.5 to 10 m long. […] The trial sites had naturally occurring populations of weeds. The weed spectrum included, but was not limited to, black nightshade (Solanum nigrum; SOLNI), common lambsquarter (Chenopodium album; CHEAL), common groundsel (Senecio vulgaris; SENVU), round-leaved […] spuria; KICSP) and common purslane (Portulaca olerace; POROL). […] Glyphosate was tank mixed with all treatments to provide complete foliar control of all weeds so that the residual weed control after application could be evaluated. The application volumes were between 150-325 liters per hectare (L/ha) of water. All application were made using precision gas hand sprayers using a 2 or 3 m boom using flat fan (80° or 110°) nozzles to broadcast the treatments on the soil. The treated plots and control plots were rated blind at various intervals after application. […] Data were collected for all trials and analyzed using various statistical methods. Colby's equation was used to determine the herbicidal effects expected from the mixtures (Colby, S. R. Calculation of the synergistic and antagonistic response of herbicide combinations. Weeds 1967, 15, 20-22). […] A=observed efficacy of active ingredient A at the same concentration as used in the mixture; B=observed efficacy of active ingredient B at the same concentration as used in the mixture.

[2] = tested on: black nightshade (Solanum nigrum; SOLNI); conditions: France, glyphosate tank mixed
Procedure: as §1

[3] = tested on: round-leaved fluellen (Kickxia spuria; KICSP); conditions: penoxsulam 7 g ai/ha; 103 days after application, Fronton, France; glyphosate tank mixed
Procedure: as §1

[4] = tested on: common lambsquarter (Chenopodium album; CHEAL); conditions: penoxsulam 7 g ai/ha; 109 DAA, Fronton, France; glyphosate tank mixed
Procedure: as §1

[5] = tested on: common purslane (Portulaca oleracea; POROL); conditions: penoxsulam 7 g ai/ha; 103 days after application, Fronton, France; glyphosate tank mixed
Procedure: as §1

## COc1cnc(OC)n2nc(NS(=O)(=O)c3c(OCC(F)F)cccc3C(F)(F)F)nc12 [Penoxsulam]
[1]
  Percent Control SENVU Ob: 27%
[2]; penoxsulam 5.6 g ai/ha, 56 DAA, Bourdic
  Percent Control SOLNI (1) Ob: 78%
[2]; penoxsulam 7 g ai/ha, 68 DAA, Eshallat
  Percent Control SOLNI (2) Ob: 17%
[3]
  Percent Control KICSP Ob: 0%
[4]
  Percent Control CHEAL Ob: 13%
[5]
  Percent Control POROL Ob: 0%
